# Publication PMC4109617, “The functionalized amino acid (S)-Lacosamide subverts CRMP2-mediated tubulin polymerization to prevent constitutive and activity-dependent increase in neurite outgrowth” (Frontiers in Cellular Neuroscience, 2014)
# Molecular target: T1, CRMP2 (collapsin response mediator protein 2) (Rattus norvegicus, UniProt P47942)
# T1 construct: gene Dpysl2; purified recombinant wild-type CRMP2 (GST construct), NT647-labeled
# Test: microscale thermophoresis (MST), Hill fit
# Format: binding
structure (smiles),measurement,value
"COC[C@H](NC(C)=O)C(=O)NCc1ccccc1 [(S)-LCM, (S)-lacosamide]",Kd,1.5 ± 0.01 µM
